Experiment: Dissociation constant by non-linear regression analysis
Format: physicochemical

Compound | Kd [µM]
CC(=O)N[C@@H]1[C@H](O[C@H]2C[C@H](C(=O)OC(C)(C)C)[C@@H](C(=O)OC(C)(C)C)C[C@H]2O[C@H](C)C(=O)O)O[C@@H](CO)[C@H](O)[C@@H]1O[C@@H]1O[C@@H](CO)[C@H](O)[C@H](O)[C@@H]1O | 190
CC(=O)N[C@@H]1[C@H](O[C@H]2C[C@H](C(=O)OC(C)(C)C)[C@@H](C(=O)OC(C)(C)C)C[C@H]2O[C@H](CC2CCCCC2)C(=O)O)O[C@@H](CO)[C@H](O)[C@@H]1O[C@@H]1O[C@@H](CO)[C@H](O)[C@H](O)[C@@H]1O | 45
CC(=O)N[C@@H]1[C@H](O[C@H]2C[C@H](C(=O)OC(C)(C)C)[C@@H](C(=O)OC(C)(C)C)C[C@H]2O[C@H](Cc2ccccc2)C(=O)O)O[C@@H](CO)[C@H](O)[C@@H]1O[C@@H]1O[C@@H](CO)[C@H](O)[C@H](O)[C@@H]1O | 10
